ChEMBL document CHEMBL1145264, “Synthesis of tricyclic analogs of stephaoxocanidine and their evaluation as acetylcholinesterase inhibitors” (Bioorg Med Chem Lett, 2005)
“And” between values parts separate entries of the source, which are not always exact repeats. Equal values may be shown once.

biological target: Acetylcholinesterase (Homo sapiens, UniProt P22303)
Sequence (P22303 whole entry): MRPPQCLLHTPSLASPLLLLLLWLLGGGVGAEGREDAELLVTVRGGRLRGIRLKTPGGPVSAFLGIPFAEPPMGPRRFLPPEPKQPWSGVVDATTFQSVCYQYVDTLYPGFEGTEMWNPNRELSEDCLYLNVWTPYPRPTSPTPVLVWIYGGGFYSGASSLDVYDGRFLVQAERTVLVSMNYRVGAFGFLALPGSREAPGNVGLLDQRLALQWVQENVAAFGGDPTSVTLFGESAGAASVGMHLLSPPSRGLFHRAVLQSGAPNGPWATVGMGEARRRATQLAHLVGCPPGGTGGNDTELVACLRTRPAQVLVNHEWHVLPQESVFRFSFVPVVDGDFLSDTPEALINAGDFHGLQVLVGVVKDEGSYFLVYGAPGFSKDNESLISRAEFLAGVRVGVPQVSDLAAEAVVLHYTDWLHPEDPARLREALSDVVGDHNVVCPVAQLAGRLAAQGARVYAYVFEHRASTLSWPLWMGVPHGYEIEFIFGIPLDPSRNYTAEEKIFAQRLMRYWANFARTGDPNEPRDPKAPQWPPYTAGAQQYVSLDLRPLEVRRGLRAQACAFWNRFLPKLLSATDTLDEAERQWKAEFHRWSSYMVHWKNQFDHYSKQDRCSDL
Description: Inhibitory concentration against acetylcholinesterase

SMILES | IC50
C=CCC1(OC)OCc2c(OC)c(OC)cc3ccnc1c23 (stereo not drawn) | 100 µM and 99.6 µM
COc1cc2ccnc3c2c(c1OC)COC3(CCCO)OC (stereo not drawn) | 137 µM
C=CCC1(O)OCc2c(OC)c(OC)cc3ccnc1c23 (stereo not drawn) | 174 µM
COc1cc2ccnc3c2c(c1OC)COC3(O)CC(O)CO (stereo not drawn) | 109 µM
COc1cc2cc[n+](C)c3c2c(c1OC)C(Br)OC3=O (stereo not drawn) | 105 µM and 120 µM
COc1cc2ccnc3c2c(c1OC)COC3(CC(O)CO)OC (stereo not drawn) | 96 µM and 95.4 µM
COc1cc2ccnc3c2c(c1OC)COC3=O | 19.6 µM
COc1cc2ccnc3c2c(c1OC)C(Br)OC3=O (stereo not drawn) | 46 µM and 46.3 µM
